According to patent US7595400B2, “Process for the preparation of hexacyclic compounds” (Chugai Seiyaku Kabushiki Kaisha, priority 2003, dated 2009):

How the values were obtained:
[1] = converted to the inactive carboxylate form; cited from earlier work
[2] = system: QG56 (NSCLC); experiment: Anti-proliferative activity assay (WST-8), QG56; type: cell-based, human; conditions: QG56 non small cell lung cancer cells, 4 days incubation
Method: (§1) The Antiproliferative activity assay was carried out as follows. A single suspension of tumor cells was inoculated to the serially diluted 96-well microtestplate. Then the testplate was incubated in the 5% CO2 ambience at 37° C. for 4 days (2-3×10^3 cells/well). The degree of cell growth in a monolayer was measured by using WST-8 (Dojindo, Japan). IC50 values of drugs against tumor cells were calculated as the concentration of drug yielding 50% OD of the control growth. The IC50 value measures the drug concentration for 50% of the growth of tumor cells in vitro as compared to the control.
(§2) Anti-tumor activities of hexacyclic compounds of formula [1] against in vitro growth of human tumor cell lines, HCT116 and DLD-1 of colorectal cancer (CRC) and QG56 and NCI-H460 of non small cell lung cancer (NSCLC) are shown in Table 1. These cell lines are commercially available via the American Type Culture Collection (ATTC).

[3] = system: HCT116 (CRC); experiment: Anti-proliferative activity assay (WST-8), HCT116; type: cell-based, human; conditions: HCT116 colorectal cancer cells, 4 days incubation
Method: as §1, §2

[4] = system: DLD-1 (CRC); experiment: Anti-proliferative activity assay (WST-8), DLD-1; type: cell-based, human; conditions: DLD-1 colorectal cancer cells, 4 days incubation
Method: as §1, §2

[5] = system: NCI-H460 (NSCLC); experiment: Anti-proliferative activity assay (WST-8), NCI-H460; type: cell-based, human; conditions: NCI-H460 non small cell lung cancer cells, 4 days incubation
Method: as §1, §2

Row | SMILES | half-life in plasma [1] | IC50 [2] [nM] | IC50 [3] [nM] | IC50 [4] [nM] | IC50 [5] [nM]
1 | CC[C@@]1(O)C(=O)OCc2c1cc1n(c2=O)Cc2cc3ccccc3nc2-1 [camptothecin] | less than 30 min |  |  |  | 
2 | CCc1c2c(nc3ccc(O)cc13)-c1cc3c(c(=O)n1C2)COC(=O)[C@]3(O)CC [SN-38, 7-ethyl-10-hydroxycamptothecin] |  | 27 | 6.9 | 53 | 21
